Test results published in PubChem BioAssay AID1963834 (Molecular Pharmacology Branch, DTP, NCI, 2024).
pIC50: −log10 of the molar value. Where “and” joins values, the source holds several entries; their conditions need not be identical. Equal values may be shown once.

Tested on: 873145-292-R-J1-PDC complex spheroid viability
Assay: Anticancer human tumor 873145-292-R-J1-PDC patient-derived renal clear cell carcinoma cell line growth inhibition [POLQ]
Settings: for viability, T/C: stronger effect = lower value; for pIC50: curve of compound
Experimental: Multicellular complex tumor spheroid response to Polymerase (POL) inhibitors (novobiocin, ART-558, RP6685) in combination with a variety of drugs and investigational agents in selected tumor cell lines
The POL inhibitors (novobiocin, ART-558, and RP6685) were evaluated both individually and in combination with standard of care and investigational anticancer small molecules within a complex spheroid model of solid tumors. . Complex spheroids include a stromal component modeled by human endothelial cells (HUVEC) and fibroblasts modeled by human mesenchymal stem cells (MSCs). The concentration ranges selected for each drug and investigational agent were based upon clinically achievable concentrations if the clinical Cmax of the agent was known.
Compounds. The drugs and investigational agents: novobiocin (NSC847541), ART-558 (NSC835418), RP-6685 (NSC848927), peposertib (NSC802822), ceralasertib (NSC780249), elimusertib (NSC800525), camonsertib (NSC841442), AZD-1390 (NSC803789), olaparib (NSC753686), talazoparib (NSC767125), rucaparib (NSC756644), sotorasib (NSC818433), MRTX-1133 (NSC836407), SN-38 (NSC673596), topotecan (NSC609699), epotoside (NSC141540), doxorubicin (NSC123127), gemcitabine (NSC613327), 5-fluorouracil (NSC19893), paclitaxel (NSC125973), vemurafenib (NSC761431), MSA-2 (NSC828583), SN-011 (NSC837082), adavosertib (NSC754352), prexasertib (NSC758257), carboplatin (NSC241240) and oxaliplatin (NSC266046), were obtained from the National Cancer Institute (NCI) Developmental Therapeutics Program Chemical Repository (21). The FDA-approved anticancer drug set is available from the Developmental Therapeutics Program at https://dtp.cancer.gov/organization/dscb/obtaining/. […] The stock solutions were prepared in dimethyl sulfoxide (DMSO, Sigma-Aldrich, St. Louis, MO, cat. D2650), except for the platinum compounds which were prepared in saline (Quality Biological, Gaithersburg, MD, cat. 114-055-101), at 800-fold the tested concentration and stored at -70 degrees C prior to their use. All drugs and investigational agents were tested over a range starting from a high concentration at or near the clinical Cmax and decreasing in half-log increments. If the clinical Cmax for an agent had not been determined, the highest concentration tested was 10 microM, except for SN-38, which was tested at a high concentration of 1 microM.
Cell Culture. All cells were maintained in an incubator at 37 degrees C and 5% CO2 with 95% humidity. The PDC lines were cultured according to standard operating procedures established by the NCI PDMR (https://pdmr.cancer.gov). Table 3 of the manuscript, lists the cell lines along with the number of the three cell types plated to form the mct-spheroids and media for tumor cell growth. After thawing, all PDC lines, except 997537-175-T-J1-PDC and 415267-285-R-J2-PDC, were cultured in Matrigel-coated flasks prepared with a working solution of 1X Ham's F-12 nutrient mix, without supplementation (Thermo Fisher Scientific, cat. 11765054), 100 U/mL penicillin-streptomycin (Thermo Fisher Scientific, cat. 15140122), and 2.5% Matrigel (Corning Inc., Corning, NY, cat. 354248) for the first three passages. The two PDC lines 997537-175-T-J1-PDC and 415267-285-R-J2-PDC were cultured on uncoated flasks. The 857933-349-R-J2-PDC line was cultured in 6C/Colon 1B media containing advanced DMEM/F-12 (Thermo Fisher Scientific, cat. 12634028), 10 mM HEPES (Thermo Fisher Scientific, cat. 15630080), 1X GlutaMAX supplement (Thermo Fisher Scientific, cat. 35050061), 0.1 mg/mL primocin (InvivoGen, San Diego, CA, cat. ant-pm-2), 10% defined fetal bovine serum, heat inactivated (HyClone Laboratories Inc., Logan, UT, cat. SH30070.03HI), 50% L-WRN conditioned media (ATCC, cat. CRL-3276), 1.25 mM N-Acetyl-L-cysteine (Sigma-Aldrich, cat. A9165), 10 mM nicotinamide (Sigma-Aldrich, cat. N0636), 1X B-27 supplement (Thermo Fisher Scientific, cat. 17504044), 1X N-2 supplement (Thermo Fisher Scientific, cat. […]
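Further: spheroids exposed to compounds for 7 days before viability readout.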
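Wherever viability, T/C is given: luminescence signal used as surrogate for viable cell content; 100% = DMSO vehicle control viability.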

SMILES | viability, T/C (compound 0.0316 µM) | viability, T/C (compound 0.1 µM) | viability, T/C (compound 0.316 µM) | viability, T/C (compound 1 µM) | viability, T/C (compound 3.16 µM) | viability, T/C (compound 10 µM) | pIC50 | viability, T/C (compound 0.00316 µM) | viability, T/C (compound 0.01 µM) | viability, T/C (compound 0.00949 µM) | viability, T/C (compound 0.03 µM) | viability, T/C (compound 0.0949 µM) | viability, T/C (compound 0.3 µM) | viability, T/C (compound 0.949 µM) | viability, T/C (compound 3 µM) | viability, T/C (compound 0.000316 µM) | viability, T/C (compound 0.001 µM)
C#Cc1c(F)ccc2cc(O)cc(-c3ncc4c(N5CC6CCC(C5)N6)nc(OCC56CCCN5CC(F)C6)nc4c3F)c12 (stereo unspecified) | 99.2% and 106% and 107% | 104% and 107% and 91.8% | 90.8% and 96.4% and 88.5% | 89% and 91.7% and 89.9% | 91.4% and 107% and 86% | 85% and 95.8% and 82.9% | < 5.00 | – | – | – | – | – | – | – | – | – | –
C=CC(=O)N1CCN(c2nc(=O)n(-c3c(C)ccnc3C(C)C)c3nc(-c4c(O)cccc4F)c(F)cc23)C(C)C1 (stereo unspecified) | 98.3% and 103% and 94.9% | 99.5% and 99.4% and 98.3% | 107% and 125% and 109% | 118% and 113% (2×) | 137% and 134% and 116% | 121% and 145% and 124% | < 5.00 | – | – | – | – | – | – | – | – | – | –
C=CCn1c(=O)c2cnc(Nc3ccc(N4CCN(C)CC4)cc3)nc2n1-c1cccc(C(C)(C)O)n1 | 104% and 92.5% and 97.3% | 101% and 97.8% and 97.9% | 76.4% and 84.9% and 85.7% | 74.7% and 77.3% and 80% | – | – | < 6.00 | 106% and 97.8% and 112% | 95.9% and 105% and 90.5% | – | – | – | – | – | – | – | –
CC(=O)O[C@H]1C(=O)[C@@]2(C)[C@H]([C@H](OC(=O)c3ccccc3)[C@]3(O)C[C@H](OC(=O)[C@H](O)[C@@H](NC(=O)c4ccccc4)c4ccccc4)C(C)=C1C3(C)C)[C@]1(OC(C)=O)CO[C@@H]1C[C@@H]2O | – | – | – | – | – | – | < 5.52 | – | – | 79.4% and 83.2% and 84.7% | 83.6% and 72.1% and 70.3% | 74% and 72.5% and 60.7% | 70.2% and 65.1% and 65.8% | 69.9% and 66.2% and 67.9% | 63.5% and 72.9% and 57.8% | – | –
CC(C)n1c(=O)n(C)c2cnc3cc(F)c(-c4ccc(OCCCN5CCCCC5)nc4)cc3c21 | 97.8% and 99.3% and 112% | 103% and 100% and 93.3% | 94% and 101% and 112% | 92.8% and 108% and 100% | 94.8% (2×) and 96.1% | 77.7% and 95.8% and 91.3% | < 5.00 | – | – | – | – | – | – | – | – | – | –
CC1COCCN1c1cc(-c2ccnn2C)c2ccnc(-c3ccn[nH]3)c2n1 (stereo unspecified) | 88.9% and 83.1% and 97% | 77.3% and 74.3% and 90% | 67.5% and 67.3% and 68.5% | 51.8% and 50.8% and 56.1% | 40% and 41.9% and 52.3% | 39.3% and 41.4% and 57.8% | 5.92 and < 5.00 | – | – | – | – | – | – | – | – | – | –
CC1COCCN1c1cc(C2(O)CC3CCC(C2)O3)c2cnn(-c3ccn[nH]3)c2n1 (stereo unspecified) | 86.7% and 86.2% and 97.9% | 84.8% and 72% and 82.1% | 56.8% and 49.1% and 60.9% | 48.6% and 43% and 55.3% | 40% and 39.9% and 48.1% | 31.9% and 32.5% and 41% | 6.13 and 6.41 and 5.74 | – | – | – | – | – | – | – | – | – | –
CC1COCCN1c1cc(C2(S(C)(=N)=O)CC2)nc(-c2ccnc3[nH]ccc23)n1 (stereo unspecified) | 91.7% and 96% and 106% | 97.2% and 92.7% and 96.5% | 113% and 91.9% and 99.5% | 88.5% and 94.4% and 104% | 81.9% and 85.5% and 81.5% | 58% and 64.2% and 54.1% | < 5.00 | – | – | – | – | – | – | – | – | – | –
CCCS(=O)(=O)Nc1ccc(F)c(C(=O)c2c[nH]c3ncc(-c4ccc(Cl)cc4)cc23)c1F | 113% and 104% and 102% | 96.8% and 107% and 99.6% | 109% and 103% and 107% | 95.2% and 107% and 104% | 109% and 98.7% and 92.9% | 76.7% and 72.3% and 60.6% | < 5.00 | – | – | – | – | – | – | – | – | – | –
CC[C@@]1(O)C(=O)OCc2c1cc1n(c2=O)Cc2cc3c(CN(C)C)c(O)ccc3nc2-1 | 84.9% and 95.7% and 77.4% | 59.5% and 63.6% and 48.9% | – | – | – | – | < 7.00 and 7.02 | 93.4% and 95.2% and 101% | 92.8% and 107% and 103% | – | – | – | – | – | – | 96.5% and 108% and 99.8% | 94.6% and 99.2% and 92.7%
CCc1c2c(nc3ccc(O)cc13)-c1cc3c(c(=O)n1C2)COC(=O)[C@]3(O)CC | 50.6% and 60% and 54.1% | 49.2% and 52.5% and 41.1% | 37.8% and 45.3% and 34.1% | 30.3% and 37.3% and 29.6% | – | – | 7.21 and 7.00 and 7.32 | 94.8% and 105% and 94% | 77.7% and 88.3% and 80.5% | – | – | – | – | – | – | – | –
CCc1cc2c(N3CCc4c(cc(Cn5ccnc5)cc4-c4cn(C)nc4C(F)(F)F)C3=O)cc(C)nc2c(OC)n1 | 95.3% and 101% and 104% | 96.6% and 94.7% and 102% | 88.5% and 93.9% and 90.2% | 94.2% and 85.1% and 80.9% | 85.1% and 79.1% and 86.5% | 80.2% and 85.1% and 81% | < 5.00 | – | – | – | – | – | – | – | – | – | –
CCc1cc2c(N3CCc4c(cc(Cn5ccnc5)cc4-c4cn(C)nc4C(F)(F)F)C3=O)ccnc2c(OC)n1 | 107% and 99% and 101% | 89.9% and 92.2% and 96.8% | 89.1% and 97.3% and 84.2% | 92.1% and 87.7% and 87.1% | 86.4% and 98% and 86.1% | 75.7% and 91.9% and 81.5% | < 5.00 | – | – | – | – | – | – | – | – | – | –
